Results as given in ChEMBL document CHEMBL1201862, “PubChem BioAssay data set” (2004).
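48-hour exposure; five concentrations; linearly interpolated endpoints. GI50: concentration for 50% inhibition of growth.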 Active and inactive are the calls of the source. Rule as the data show it: active = GI50 up to about 1.1 µM and inactive = higher.

Experiments:
Test in all cases: NCI-60 cell line screen, 48 h
ACHN = system: ACHN
CAKI-1 = system: CAKI-1
HCC 2998 = system: HCC 2998
HOP-62 = system: HOP-62
M14 = system: M14
MCF7 = system: MCF7
MDA-N = system: MDA-N
NCI/ADR-RES = system: NCI/ADR-RES
OVCAR-3 = system: OVCAR-3
OVCAR-4 = system: OVCAR-4
PC-3 = system: PC-3
RPMI-8226 = system: RPMI-8226
SF-268 = system: SF-268
SF-539 = system: SF-539
SK-MEL-28 = system: SK-MEL-28
SK-OV-3 = system: SK-OV-3
SNB-19 = system: SNB-19
SR = system: SR
UO-31 = system: UO-31

Measured: GI50

COc1ccc(-c2c3c(n(C4OC(CO)C(O)C(O)C4O)c(=S)c2C#N)CCC3)cc1 (stereo unspecified)
inactive: ACHN 38.5 µM | CAKI-1 > 100 µM | HCC 2998 66.2 µM | HOP-62 40 µM | M14 36.2 µM | MCF7 37.6 µM | MDA-N 53.8 µM | NCI/ADR-RES > 100 µM | OVCAR-3 25.7 µM | OVCAR-4 79.1 µM | PC-3 41.3 µM | RPMI-8226 49.5 µM | SF-268 62.8 µM | SF-539 20.4 µM | SK-MEL-28 35.1 µM | SK-OV-3 91.4 µM | SNB-19 37.7 µM | SR 38.4 µM | UO-31 > 100 µM

CC1C(c2ccc3c(c2)OCO3)c2cc3c(cc2OC1N1CCCC1)OCO3 (stereo unspecified)
inactive: ACHN 29.3 µM | CAKI-1 11.6 µM | HCC 2998 17.8 µM | HOP-62 49.5 µM | M14 25.5 µM | MCF7 33.1 µM | MDA-N 16.1 µM | NCI/ADR-RES 29.2 µM | OVCAR-3 25.8 µM | PC-3 32.9 µM | RPMI-8226 29.2 µM | SF-268 23.1 µM | SF-539 16.1 µM | SK-MEL-28 37.1 µM | SNB-19 20.9 µM | SR 35.5 µM | UO-31 17.2 µM

Cc1nc(SCC(N)=O)c2sc(=S)n(-c3ccccc3)c2n1
inactive: ACHN > 10 µM | CAKI-1 > 10 µM | HCC 2998 > 10 µM | HOP-62 > 10 µM | M14 > 10 µM | MCF7 > 10 µM | MDA-N > 10 µM | NCI/ADR-RES > 10 µM | OVCAR-3 > 10 µM | OVCAR-4 > 10 µM | PC-3 > 10 µM | RPMI-8226 > 10 µM | SF-268 > 10 µM | SF-539 > 10 µM | SK-MEL-28 > 10 µM | SK-OV-3 > 10 µM | SNB-19 > 10 µM | SR > 10 µM

O=c1c2ccc(Cl)cc2oc2c(CSc3ccccc3)cccc12
inactive: ACHN > 39.2 µM | CAKI-1 > 38.5 µM | HCC 2998 > 54.1 µM | HOP-62 > 55 µM | M14 > 42.5 µM | MCF7 29.1 µM | MDA-N 31.7 µM | NCI/ADR-RES > 50.2 µM | OVCAR-3 > 40.8 µM | OVCAR-4 > 59.4 µM | PC-3 > 39.5 µM | RPMI-8226 13.2 µM | SF-268 > 100 µM | SF-539 24.5 µM | SK-MEL-28 > 53.1 µM | SK-OV-3 > 55 µM | SNB-19 > 45.5 µM | SR 9.64 µM

O=C(CSc1nc2ccc(I)cc2c(=O)n1Cc1ccccc1)NN1C(=O)CCC1=O
inactive: ACHN 18.2 µM | CAKI-1 1.65 µM | HCC 2998 77.4 µM | HOP-62 54.5 µM | M14 79.8 µM | MCF7 41.5 µM | MDA-N 83.4 µM | NCI/ADR-RES 37.2 µM | OVCAR-3 23.5 µM | OVCAR-4 21.5 µM | PC-3 30.1 µM | RPMI-8226 37.7 µM | SF-268 39.1 µM | SF-539 61.4 µM | SK-MEL-28 61.4 µM | SK-OV-3 52 µM | SNB-19 85.3 µM | SR 31.9 µM

COc1ccc(C(=O)/C=C/c2ccc(OCCCOc3ccc(/C=C/C(=O)c4ccc(OC)c(OC)c4)cc3)cc2)cc1OC
inactive: ACHN > 100 µM | CAKI-1 > 100 µM | HCC 2998 > 100 µM | HOP-62 > 100 µM | M14 > 100 µM | MCF7 > 100 µM | MDA-N > 100 µM | NCI/ADR-RES > 100 µM | OVCAR-4 > 100 µM | PC-3 > 100 µM | RPMI-8226 > 100 µM | SF-268 > 100 µM | SF-539 > 100 µM | SK-MEL-28 > 100 µM | SK-OV-3 > 100 µM | SNB-19 > 100 µM | SR > 100 µM | UO-31 > 100 µM

N/C(=N\O)N/N=C/c1ccc2c(c1)OCO2
inactive: ACHN 20 µM | CAKI-1 30.3 µM | HCC 2998 35.6 µM | HOP-62 26.6 µM | M14 13.5 µM | MCF7 28.6 µM | MDA-N 36.5 µM | NCI/ADR-RES 6.75 µM | OVCAR-3 14.2 µM | OVCAR-4 26.4 µM | PC-3 26.2 µM | RPMI-8226 21.2 µM | SF-268 13.9 µM | SF-539 27.7 µM | SK-MEL-28 46 µM | SK-OV-3 47.4 µM | SNB-19 62.7 µM | SR 7.87 µM
